These results are taken from US20250129027A1 (APOGEE PHARMACEUTICALS, INC., priority 2023, published 2025).

In one test the target is human recombinant FAAH (Homo sapiens (Human), UniProt O00519). Kind of test: In vitro inhibition of FAAH activity (fluorescent inhibitor screening kit, AMC arachidonoyl amide). Format: biochemical. Conditions: human recombinant FAAH; read-out: Inhibition on FAAH activity (IC50). The procedure, abridged:
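Fluorogenic kit assay: AMC arachidonoyl amide is cleaved by human recombinant FAAH, read at 340-360/450-465 nm. Percent inhibition versus non-treated control; IC50 values derived from multiple compound concentrations where tested.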

The next test addresses human recombinant MAGL (Homo sapiens (Human), UniProt Q99685). Description: In vitro inhibition of MAGL activity (inhibitor screening kit, 4-nitrophenylacetate). Format: biochemical. Conditions: for IC50: human recombinant MAGL. The procedure, abridged:
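Colorimetric kit assay: recombinant human MAGL hydrolyses 4-nitrophenylacetate to 4-nitrophenol, read by absorbance at 405-412 nm. Inhibition given as percentage of signal in treated versus untreated MAGL control.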

human recombinant MAGL, sequence (Q99685 whole entry): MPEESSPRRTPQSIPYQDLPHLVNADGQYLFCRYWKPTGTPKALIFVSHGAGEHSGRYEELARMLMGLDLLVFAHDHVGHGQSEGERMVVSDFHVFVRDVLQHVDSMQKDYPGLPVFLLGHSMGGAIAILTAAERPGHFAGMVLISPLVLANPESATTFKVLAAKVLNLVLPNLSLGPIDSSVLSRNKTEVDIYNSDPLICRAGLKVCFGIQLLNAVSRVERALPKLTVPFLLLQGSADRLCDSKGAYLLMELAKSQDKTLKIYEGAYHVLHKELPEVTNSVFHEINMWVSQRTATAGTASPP
human recombinant FAAH, sequence (O00519 whole entry): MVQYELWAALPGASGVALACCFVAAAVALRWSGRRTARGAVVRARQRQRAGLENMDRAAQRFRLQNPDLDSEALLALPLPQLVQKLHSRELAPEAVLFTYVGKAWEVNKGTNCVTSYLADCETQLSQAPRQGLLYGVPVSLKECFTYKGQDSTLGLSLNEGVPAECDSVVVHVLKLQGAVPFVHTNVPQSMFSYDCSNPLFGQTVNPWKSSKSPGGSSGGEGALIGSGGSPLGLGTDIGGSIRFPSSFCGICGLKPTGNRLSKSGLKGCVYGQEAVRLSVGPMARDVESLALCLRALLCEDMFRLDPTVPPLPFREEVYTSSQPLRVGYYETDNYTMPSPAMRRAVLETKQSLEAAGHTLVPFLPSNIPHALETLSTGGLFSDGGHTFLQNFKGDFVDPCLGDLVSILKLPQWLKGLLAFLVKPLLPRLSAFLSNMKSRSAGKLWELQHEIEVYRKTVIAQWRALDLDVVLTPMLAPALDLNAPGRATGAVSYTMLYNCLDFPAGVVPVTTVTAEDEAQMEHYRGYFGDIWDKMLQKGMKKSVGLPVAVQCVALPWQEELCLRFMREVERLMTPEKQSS

As for `O=C(NC1CCCCC1)Oc1ccc(F)c(-c2cncc(-c3nnco3)c2)c1` [Example 192, 3-(5-(1,3,4-oxadiazol-2-yl)pyridin-3-yl)-4-fluorophenyl cyclohexylcarbamate], the IC50 on human recombinant FAAH was 10 to 100 nM; at human recombinant MAGL, more than 10000 nM.
The matching figures for `COc1ccc(OC(=O)NC2CCCCCC2)cc1-c1cncc(-c2nncs2)c1` [Example 218, 3-(5-(1,3,4-thiadiazol-2-yl)pyridin-3-yl)-4-methoxyphenyl cycloheptylcarbamate]: 10 to 100 nM and more than 10000 nM.
For `Cc1cc(OC(=O)NCC2CCCCC2)cc(-c2cncc(-c3ncco3)c2)c1` [Example 99, 3-methyl-5-(5-(oxazol-2-yl)pyridin-3-yl)phenyl (cyclohexylmethyl)carbamate], the IC50 on human recombinant FAAH is 100 to 1000 nM; at human recombinant MAGL, approximately 10000 nM.
Consider `O=C(NCc1ccccc1)Oc1cccc(-c2cncc(-c3ccco3)c2)c1` [Example 49, 3-(5-(furan-2-yl)pyridin-3-yl)phenyl benzylcarbamate], for which the results for the IC50 on human recombinant FAAH and at human recombinant MAGL were 100 to 1000 nM and more than 10000 nM, respectively.
As for `COc1ccc(OC(=O)NC2CCCC2)cc1-c1cncc(-c2nnn[nH]2)c1` [Example 253, 3-(5-(1H-tetrazol-5-yl)pyridin-3-yl)-4-methoxyphenyl cyclopentylcarbamate], the IC50 is more than 1000 nM at human recombinant FAAH and more than 10000 nM on human recombinant MAGL.
Regarding `COc1ccc(OC(=O)NC2CCCC2)cc1-c1cncc(-c2ccco2)c1` [Example 56, 3-(5-(furan-2-yl)pyridin-3-yl)-4-methoxyphenyl cyclopentylcarbamate], the IC50 on human recombinant FAAH was 100 to 1000 nM; on human recombinant MAGL, more than 10000 nM.
The matching figures for `CCCCCCCCNC(=O)Oc1cccc(-c2cncc(C(=O)NN)c2)c1` [Example 25, 3-(5-(hydrazinecarbonyl)pyridin-3-yl)phenyl octylcarbamate]: more than 1000 nM and more than 10000 nM.
The corresponding values for `O=C(NCC1CCCCC1)Oc1cccc(-c2cncc(-c3nncs3)c2)c1` [Example 208, 3-(5-(1,3,4-thiadiazol-2-yl)pyridin-3-yl)phenyl (cyclohexylmethyl)carbamate] are 10 to 100 nM and more than 10000 nM.
As to `O=C(NCC1CCCCC1)Oc1cccc(-c2cncc(C(F)(F)F)c2)c1` [Example 31, 3-(5-(trifluoromethyl)pyridin-3-yl)phenyl (cyclohexylmethyl)carbamate], the results for the IC50 at human recombinant FAAH and at human recombinant MAGL were 10 to 100 nM and more than 1000 nM, respectively.
For the molecule “3-(5-(1,3,4-oxadiazol-2-yl)134 pyridine-3-yl)phenyl heptylcarbamate [Example 129]”, the IC50 at human recombinant FAAH was 1 to 10 nM; at human recombinant MAGL it was more than 10000 nM.
`COc1ccc(OC(=O)NC2CCCCC2)cc1-c1cncc(-c2ncn[nH]2)c1` [Example 236, 3-(5-(1H-1,2,4-triazol-5-yl)pyridin-3-yl)-4-methoxyphenyl cyclohexyl carbamate]: the IC50 is 100 to 1000 nM at human recombinant FAAH and more than 10000 nM on human recombinant MAGL.
On to `COc1ccc(OC(=O)NC2CCCCC2)cc1-c1cncc(-c2nnco2)c1` [Example 170, 3-(5-(1,3,4-oxadiazol-2-yl)pyridin-3-yl)-4-methoxyphenyl cyclohexylcarbamate], for which the IC50 was 100 to 1000 nM on human recombinant FAAH and approximately 10000 nM on human recombinant MAGL.
For the molecule `COc1ccc(OC(=O)NCC2CCCCC2)cc1-c1cncc(-c2ccco2)c1` [Example 54, 3-(5-(furan-2-yl)pyridin-3-yl)-4-methoxyphenyl (cyclohexylmethyl)carbamate], the IC50 at human recombinant FAAH was 100 to 1000 nM; at human recombinant MAGL, approximately 10000 nM.
Take `COc1ccc(OC(=O)NCc2ccccc2)cc1-c1cncc(-c2ncn[nH]2)c1` [Example 234, 3-(5-(1H-1,2,4-triazol-5-yl)pyridin-3-yl)-4-methoxyphenyl benzyl carbamate]: the IC50 is more than 1000 nM on human recombinant FAAH and more than 10000 nM at human recombinant MAGL.
As to `CCCCCCCCNC(=O)Oc1cccc(-c2cncc(-c3nnco3)n2)c1` [Example 263, 3-(6-(1,3,4-oxadiazol-2-yl)pyrazin-2-yl)phenyl octylcarbamate], the values for the IC50 at human recombinant FAAH and at human recombinant MAGL were 1 to 10 nM and 1000 to 10000 nM, respectively.
The matching figures for `COc1ccc(OC(=O)NC2CCCCC2)cc1-c1cncc(-c2cccs2)c1` [Example 69, 4-methoxy-3-(5-(thiophen-2-yl)pyridin-3-yl)phenyl cyclohexylcarbamate]: 100 to 1000 nM and more than 10000 nM.
For `O=C(Nc1cccc2ccccc12)Oc1cccc(-c2cncc(-c3nnco3)c2)c1` [Example 140, 3-(5-(1,3,4-oxadiazol-2-yl)pyridin-3-yl)phenyl naphthalen-1-ylcarbamate], the IC50 is more than 100 nM on human recombinant FAAH and more than 50000 nM on human recombinant MAGL.
The matching figures for `COc1ccc(OC(=O)NCc2ccccc2)cc1-c1cncc(-c2nncs2)c1` [Example 215, 3-(5-(1,3,4-thiadiazol-2-yl)pyridin-3-yl)-4-methoxyphenyl benzylcarbamate]: 100 to 1000 nM and more than 10000 nM.
For `O=C(NCC1CCCCC1)Oc1cccc(-c2cncc(-c3nccs3)c2)c1` [Example 116, 3-(5-(thiazol-2-yl)pyridin-3-yl)phenyl (cyclohexylmethyl)carbamate], the IC50 was 10 to 100 nM at human recombinant FAAH and approximately 10000 nM at human recombinant MAGL.
As for `O=C(Oc1cccc(-c2cncc(-c3nnco3)c2)c1)N1CCC2(CC1)COC2` [Example 153, 3-(5-(1,3,4-oxadiazol-2-yl)pyridin-3-yl)phenyl 2-oxa-7-azaspiro[3.5]nonane-7-carboxylate], the values for the IC50 on human recombinant FAAH and at human recombinant MAGL were 1000 to 10000 nM and more than 10000 nM, respectively.
`O=C(NC1CCCCCC1)Oc1cccc(-c2cncc(-c3nccs3)c2)c1` [Example 120, 3-(5-(thiazol-2-yl)pyridin-3-yl)phenyl cycloheptylcarbamate]: the IC50 is 10 to 100 nM at human recombinant FAAH and approximately 10000 nM on human recombinant MAGL.
`CCCCCCCCNC(=O)Oc1ccc(O)c(-c2cncc(-c3ncn[nH]3)c2)c1` [Example 226, 3-(5-(1H-1,2,4-triazol-5-yl)pyridin-3-yl)-4-hydroxyphenyl octyl carbamate]: the IC50 at human recombinant FAAH is 1 to 10 nM; on human recombinant MAGL it was more than 10000 nM.
Turning to `O=Cc1cncc(-c2cccc(OC(=O)NC34CC5CC(CC(C5)C3)C4)c2)c1` [Example 21, 3-(5-formylpyridin-3-yl)phenyl ((1s,3s)-adamantan-1-yl)carbamate], the values for the IC50 on human recombinant FAAH and at human recombinant MAGL were more than 1000 nM and more than 10000 nM, respectively.
With `O=Cc1cncc(-c2cccc(OC(=O)NC3CCCC3)c2)c1` [Example 18, 3-(5-formylpyridin-3-yl)phenyl cyclopentylcarbamate], the IC50 was 10 to 100 nM at human recombinant FAAH and more than 10000 nM at human recombinant MAGL.
With `CCCCCCCCNC(=O)Oc1cc(-c2cncc(-c3ncco3)c2)ccc1C` [Example 92, 2-methyl-5-(5-(oxazol-2-yl)pyridin-3-yl)phenyl octylcarbamate], the IC50 at human recombinant FAAH is 100 to 1000 nM; at human recombinant MAGL, more than 10000 nM.
For `CSc1ccc(OC(=O)NCC2CCCCC2)cc1-c1cncc(-c2nnco2)c1` [Example 187, 3-(5-(1,3,4-oxadiazol-2-yl)pyridin-3-yl)-4-(methylthio)phenyl (cyclohexylmethyl) carbamate], the half-maximal inhibitory concentration (IC50) at human recombinant FAAH was 100 to 1000 nM; on human recombinant MAGL it was more than 10000 nM.
As for `N#Cc1cncc(-c2cccc(OC(=O)NC3CCCCC3)c2)c1` [Example 28, 3-(5-cyanopyridin-3-yl)phenyl cyclohexylcarbamate], the IC50 is 100 to 1000 nM at human recombinant FAAH and more than 10000 nM at human recombinant MAGL.
As to `COc1cc(OC(=O)NC2CCCC2)cc(-c2cncc(-c3nnco3)c2)c1` [Example 177, 3-(5-(1,3,4-oxadiazol-2-yl)pyridin-3-yl)-5-methoxyphenyl cyclopentylcarbamate], the IC50 was 100 to 1000 nM at human recombinant FAAH and more than 10000 nM on human recombinant MAGL.
In the case of `COc1ccc(OC(=O)NCc2ccccc2)cc1-c1cncc(-c2ccno2)c1` [Example 111, 3-(5-(isoxazol-5-yl)pyridin-3-yl)-4-methoxyphenyl benzylcarbamate], the IC50 was 100 to 1000 nM at human recombinant FAAH and more than 10000 nM at human recombinant MAGL.
`O=C(NCC1CCCCC1)Oc1cccc(-c2cncc(-c3cccs3)c2)c1` [Example 60, 3-(5-(thiophen-2-yl)pyridin-3-yl)phenyl (cyclohexylmethyl)carbamate]: the figures for the IC50 at human recombinant FAAH and on human recombinant MAGL were 10 to 100 nM and more than 10000 nM, respectively.
The corresponding values for `Cc1ccc(-c2cncc(-c3ncco3)c2)cc1OC(=O)NCC1CCCCC1` [Example 93, 2-methyl-5-(5-(oxazol-2-yl)pyridin-3-yl)phenyl (cyclohexylmethyl)carbamate] are more than 1000 nM and 1000 to 10000 nM.
In the case of `O=C(NC1CCCCCC1)Oc1cccc(-c2cncc(-c3nnco3)n2)c1` [Example 268, 3-(6-(1,3,4-oxadiazol-2-yl)pyrazin-2-yl)phenyl cycloheptylcarbamate], the IC50 on human recombinant FAAH fell in the range of 10 to 100 nM; at human recombinant MAGL, 1000 to 10000 nM.
Consider `O=C(NCc1ccccc1)Oc1cccc(-c2cncc(-c3nnco3)n2)c1` [Example 265, 3-(6-(1,3,4-oxadiazol-2-yl)pyrazin-2-yl)phenyl benzylcarbamate], for which the IC50 at human recombinant FAAH is 100 to 1000 nM; at human recombinant MAGL, more than 10000 nM.
The corresponding values for `COc1cc(OC(=O)NCC2CCCCC2)cc(-c2cncc(-c3nnco3)c2)c1` [Example 175, 3-(5-(1,3,4-oxadiazol-2-yl)pyridin-3-yl)-5-methoxyphenyl (cyclohexylmethyl)carbamate] are approximately 100 nM and more than 10000 nM.
For the molecule `O=C(Nc1cnccc1Cl)N1CCN(Cc2ccc3c(c2)OC(F)(F)O3)CC1` [JNJ-42165279, reference compound], the half-maximal inhibitory concentration (IC50) at human recombinant FAAH was 106 nM; at human recombinant MAGL it was more than 50000 nM. Moreover, the “fold-selectivity over MAGL (selectivity index)” value on human recombinant MAGL (FAAH over MAGL) was found to be 473 times.
Take `COc1ccc(OC(=O)NCC2CCCCC2)cc1-c1cncc(-c2nnn[nH]2)c1` [Example 251, 3-(5-(1H-tetrazol-5-yl)pyridin-3-yl)-4-methoxyphenyl (cyclohexylmethyl)carbamate]: the values for the IC50 at human recombinant FAAH and on human recombinant MAGL were more than 1000 nM and more than 10000 nM, respectively.
